One series has as its system whole cells. The experiment in a line: Whole cell mediated disulfide reduction. It is filed as cell-based. Particulars: mesna in combination with cisplatin.
Series [1] deals with coupled thioredoxin (TX)/thioredoxin reductase (TXR) system. Kind of series: NADPH oxidation, thioredoxin reductase + thioredoxin. The settings on record: for NADPH Oxidation, Thioredoxin Reductase + Thioredoxin: Disulfide 0.5 mM, minimum of triplicate assays. The series is classed as biochemical, bovine. How it is done: (§1) The activity of TXR and TX was determined by following NADPH oxidation at 340 nm according to the previously reported method. See, Luthman, M., and Holmgren, A. Rat liver thioredoxin and thioredoxin reductase: purification and characterization. Biochemistry 21:6628-6633 (1982). A typical assay mixture contained TR buffer (50 mM potassium phosphate, pH 7.0, 1 mM EDTA), […] NADPH, 1.6 μg bovine TX, and one or more of the following: 4.8 μM TXR, 86 μM insulin, and one of the disulfides described herein. All disulfides were added to reactions as 10× solutions in TR buffer. The total volume of each reaction was 0.1 mL. Reactions were initiated by the addition of TX and were incubated at 25° C. for 40 min. The activity was calculated using a 4 min. linear portion of each reaction. Enzyme assays were carried out using either a Molecular Devices SpectraMaxPlus UV plate reader or a Varian Cary 100 UV-visible Spectrophotometer.
Data was then collected and plotted in Microsoft Excel. Error calculations, and graphical representations were performed in Microsoft Excel and Kaleidograph (ver. 3.5). Nonlinear data was graphically rendered using Kaleidograph. ANOVA and other statistical analyses were performed using SAS (ver. 8.2). Unless otherwise noted, significance level was set at 0.05, and error bars represent actual experimental standard deviation.

Series [2] has as its target T1, glutathione reductase (GR) (Homo sapiens, UniProt P00390).
T1 sequence (P00390 44-522): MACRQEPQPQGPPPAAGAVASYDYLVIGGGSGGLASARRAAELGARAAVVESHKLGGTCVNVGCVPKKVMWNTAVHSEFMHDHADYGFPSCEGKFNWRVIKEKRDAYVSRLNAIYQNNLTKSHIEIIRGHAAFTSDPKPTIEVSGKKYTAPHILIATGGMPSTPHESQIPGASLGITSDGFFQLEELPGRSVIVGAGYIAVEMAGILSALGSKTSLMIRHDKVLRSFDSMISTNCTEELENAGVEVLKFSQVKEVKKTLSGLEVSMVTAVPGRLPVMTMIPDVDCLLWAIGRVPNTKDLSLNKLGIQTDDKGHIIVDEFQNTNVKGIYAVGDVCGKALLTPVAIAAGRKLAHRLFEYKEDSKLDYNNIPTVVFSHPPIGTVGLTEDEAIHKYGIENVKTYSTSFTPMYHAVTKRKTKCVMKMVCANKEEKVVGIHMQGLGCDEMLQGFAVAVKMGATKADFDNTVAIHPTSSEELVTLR
The experiment in a line: NADPH oxidation, GR. The series is classed as biochemical. How it is done: (§2) The Formula (I) compound was utilized at a concentration of 0.5 mM.

Series [3] concerns patients with advanced non-small cell lung carcinoma (NSCLC), including the adenocarcinoma sub-type. Kind of series: Japan Phase III Clinical Trial. The series is classed as in vivo, human. As for the experimental part: (§3) Darbepoetin alfa (200 μg; subcutaneous administration) was administered on day one of the chemotherapy cycle and pegfilgrastim (6 mg subcutaneous administration) was administered on day two of the chemotherapy cycle if the patient's hemoglobin levels were ≦11 g/dL. The aforementioned chemotherapy cycle was repeated every two weeks, for up to a total of six cycles.
Patients admitted into the trial included those patients without previous treatment (excluding surgical treatment, administration of Picibanil into the serous membrane, irradiation of 30% or less hematopoietic bone, or oral chemotherapeutic agents within 3 months of entry in the trial).
The Japan Phase III Clinical Trial was conducted as a double-blind study because peripheral neuropathy is diagnosed based on subjective symptoms evaluated through clinical interviews, lab tests, and the like. Accordingly, evaluations by both physicians and patients are highly important. […] A placebo was used as control since there is no established therapy or drug for preventing peripheral neuropathy. Because the severity of peripheral neuropathy is evaluated based on patient's reports (i.e., subjective symptoms), the Peripheral Neuropathy Questionnaire (PNQ©) was used in primary evaluation. CIPN-20 and NCI-CTC were used in secondary evaluation. The incidence and severity of adverse reactions, time to their onset, etc. and the like, were compared between patients treated with Tavocept™ and those given a placebo using the aforementioned methods.

Series [4] deals with patients with advanced, Stage IIIB/IV, non-small cell lung carcinoma (NSCLC), including the adenocarcinoma sub-type. The experiment in a line: U.S. Phase II NSCLC Clinical Trial. The series is classed as in vivo, human. As for the experimental part: as §3
Series [5] deals with T2, Glutathione-S-Transferase (GST) (Homo sapiens, UniProt P09488).
T2 construct: purchased
T2 sequence (P09488 2-218 limits assumed): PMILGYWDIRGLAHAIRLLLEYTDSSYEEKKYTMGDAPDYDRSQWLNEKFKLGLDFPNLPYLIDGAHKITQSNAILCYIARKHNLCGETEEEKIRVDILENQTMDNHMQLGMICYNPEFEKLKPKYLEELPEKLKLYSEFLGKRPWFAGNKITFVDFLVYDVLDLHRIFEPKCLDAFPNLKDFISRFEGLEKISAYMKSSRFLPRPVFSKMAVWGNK
The experiment in a line: GST assay: conjugation of reduced glutathione to 1-chloro-2,4-dinitrobenzene (CDNB). The series is classed as biochemical. Particulars: read-out: Percent Inhibition. As for the experimental part:
An in vitro assay for GST has been developed and reported. See, Meyer, D. J. and Ketterer, B., Purification of soluble human glutathione S-transferases. Methods Enzymol. 252:53-65 (1995). This assay monitors the conjugation of reduced glutathione to 1-chloro-2,4-dinitrobenzene (CDNB), as illustrated in Reaction Scheme II, below.
Reduced thiol forms a conjugate with CDNB (extinction coefficient=9600 M^−1 cm^−1), which is detected at 340 nm. […] A typical 1 mL assay was set up by mixing 500 μl NaHPO4 buffer (200 mM, pH 6.5), 20 μL GSH (50 mM), 20 μL CDNB (50 mM), and 458 μL sterile water. Reactions were incubated at 20° C. in the cuvette holder of the spectrophotometer for approximately 5 min. prior to initiating the assay with the addition of enzyme (ml−1 isotype of GST; activity >100 U/mg). The enzyme stock purchased from the vendor was diluted 1:100 in 200 mM NaHPO4 buffer (pH 6.5), and 2 μL of the diluted enzyme was added to initiate the reaction. The final amount of enzyme added to the assay was typically 0.002 U. Assays were run at 20° C. in 1 mL quartz cuvettes (Hellma Scientific). Slopes were measured in the linear range of the assay (i.e., typically between 5 to 10 min.). […] Final reaction volumes were fixed at 1 mL by adjusting the amount of water added.
a. […]
Raw data was obtained on a Cary 100 spectrophotometer. […] No absorbance values were collected during the process of enzyme addition. […] It was during this time that reaction rates (i.e., slopes of change in absorbance with time) were measured using the Cary 100 software. […] Absorbance and time values during the end phase of the reaction were not used in slope calculations because the reaction was effectively over at this point as the reaction no longer followed the classical Michaelis-Menton model for enzyme kinetics. Completion of the reaction on the Cary software could be detected visually by overlaying a straight line beginning at the addition of enzyme and extending past the end phase of the assay curve. […]

Series [6] has as its target T3, coupled glutaredoxin (GRX)/glutathione (GSH)/glutathione reductase (GR) system (Homo sapiens, UniProt P35754).
T3 sequence (P35754 2-106 limits assumed): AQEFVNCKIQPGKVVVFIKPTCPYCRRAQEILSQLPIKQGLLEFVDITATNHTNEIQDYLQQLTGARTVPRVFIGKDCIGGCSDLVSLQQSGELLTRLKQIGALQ
The experiment in a line: NADPH oxidation, GR + GRX + GSH. It is filed as biochemical. The settings on record: in the presence of reduced glutathione and glutathione reductase. As for the experimental part: as §2

Series [7] deals with coupled thioredoxin (TX)/thioredoxin reductase (TXR) system. The experiment in a line: TX/TXR catalyzed reduction of the insulin A-B chain disulfide. The series is classed as biochemical, bovine. As for the experimental part: as §1
Setting [8] is: Tavocept™ and chemotherapy vs chemotherapy and placebo.
Where [9] appears, read: Grade 3 and Grade 4 treatment-related adverse events, Tavocept™ arm versus non-Tavocept™ arm, FIG. 15.

Entries after “also recorded” stand apart in the source; their conditions may differ.

`O=S(=O)([O-])CCS.[Na+]` [mesna, 2-mercapto ethane sulfonate sodium]: in the series with whole cells, the “reduction of hydroxyethyldisulfide (GRX substrate) by whole cells” value is on record as “enhanced” and the “reduction of α-lipoic acid (TX/TXR substrate) by whole cells” value was “enhanced”.

As for `N[C@@H](CSSCCS(=O)(=O)O)C(=O)NCC(=O)O` [BNP7776], in series [1], the “substrate (alternative substrate inhibitor) for thioredoxin / the coupled thioredoxin/thioredoxin reductase/NADPH system” value is given as “substrates” and the “NADPH Oxidation, Thioredoxin Reductase + Thioredoxin” value stood at 15.8 ± 0.3 nmol/min/mL.

In the case of `NC(CCSSCCS(=O)(=O)O)C(=O)O` (centres unmarked) [BNP7768], in series [1], the “substrate (alternative substrate inhibitor) for thioredoxin / the coupled thioredoxin/thioredoxin reductase/NADPH system” value is recorded as “substrates” and the “NADPH Oxidation, Thioredoxin Reductase + Thioredoxin” value is 8.6 ± 0.06 nmol/min/mL.

Take `N[C@@H](CCC(=O)N[C@@H](CSSCCS(=O)(=O)O)C(=O)NCC(=O)O)C(=O)O` [BNP7772]: the “substrate for glutathione reductase” value in series [2] is listed as “alternative substrate inhibitor”. Also, in series [1], the “substrate (alternative substrate inhibitor) for thioredoxin / the coupled thioredoxin/thioredoxin reductase/NADPH system” value is on record as “substrates” and the “NADPH Oxidation, Thioredoxin Reductase + Thioredoxin” value was found to be 14.1 ± 0.1 nmol/min/mL.

Turning to `NC(CCC(=O)NC(CSSCCS(=O)(=O)O)C(=O)O)C(=O)O` (centres unmarked) [BNP7774], in series [1], the “substrate (alternative substrate inhibitor) for thioredoxin / the coupled thioredoxin/thioredoxin reductase/NADPH system” value was “substrates” and the “NADPH Oxidation, Thioredoxin Reductase + Thioredoxin” value amounted to 9.6 ± 0.2 nmol/min/mL.

By inhibition is commonly meant the percentage by which the read-out fell short of the control. As to `O=S(=O)([O-])CCSSCCS(=O)(=O)[O-].[Na+].[Na+]` [Tavocept™, disodium 2,2′-dithio-bis-ethane sulfonate], the “substrate for glutathione reductase” value in series [2] was “not a substrate”. Moreover, in series [3] (setting [8]), the chemotherapy-induced kidney damage entry is on record as “medically-important reductions” and the chemotherapy-induced vomiting/emesis result is recorded as “medically-important reductions”. In addition, in series [3] (Tavocept™ arm, FIG. 7), the “patients with Grade 3 (severe) decrease in red blood cell” value is recorded as 1 patients. In series [3] (Tavocept™ arm, FIG. 8 "Doctor"), the “Response Rate, as measured by physicians” value is listed as 41.9%. In addition, the “reduction in severe (Grade D or E) peripheral neuropathy (PNQ)” value in series [3] (paclitaxel/Tavocept™/cisplatin vs paclitaxel/saline placebo/cisplatin, FIG. 5, GEE P-Value 0.1565 (FIG. 6)) is listed as about 50%. Besides, the anorexia result in series [3] (vs placebo regimen, p=0.0029) was “reductions”. Besides, the fatigue result in series [3] (vs placebo regimen, p=0.0163) is “reductions”. In series [3] (vs placebo regimen, p=0.0240), the nausea/vomiting result is reported as “reductions”. In addition, the diarrhea entry in series [3] (vs placebo regimen, p=0.0859) is given as “reductions”. Besides, the insomnia entry in series [3] (vs placebo regimen, p=0.1108) is listed as “reductions”. In addition, the constipation result in series [3] (vs placebo regimen, p=0.1114) is reported as “reductions”. Also, the “hazard ratio, adenocarcinoma” value in series [4] (FIG. 14) came to 0.601. In series [4] (setting [9]), this compound came in with a reduction in dehydration of 50%, a reduction in hypomagnesaemia of 100%, a reduction in nausea of 38.5% and a reduction in vomiting of 71.5%. Further, in series [4] (NSCLC, FIG. 12), the hazard ratio is 0.750. Further, the “increase in patient survival, adenocarcinoma” value in series [4] (Tavocept™ arm versus non-Tavocept™ arm, FIG. 14) was 6.54 month. In addition, in series [4] (Tavocept™ arm versus non-Tavocept™ arm, FIG. 14, listed as Tavocept), the “increase in patient survival, adenocarcinoma” value is reported as about 6.5 month. In series [5], the inhibition at 1100 µM is 5.6%, the inhibition at 3300 µM came out at 39% and the inhibition at 10000 µM was determined as 66.4%. Besides, in series [1], the “oxidation of reduced thioredoxin to oxidized thioredoxin” value is “drives the oxidation”; the “substrate (alternative substrate inhibitor) for thioredoxin / the coupled thioredoxin/thioredoxin reductase/NADPH system” value is given as “substrate; also recorded: most likely a substrate for TX”; the “NADPH Oxidation, Thioredoxin Reductase + Thioredoxin” value came to 13.1 ± 0.2 nmol/min/mL. Also, in series [1] (FIG. 17), the “NADPH oxidation by TXR in the presence of TX” value is listed as “concentration-dependent increase”. For the same compound, the Km in series [1] (read-out: Km as substrate for the coupled thioredoxin/thioredoxin reductase system) came to 72 µM. For the same compound, the “substrate-like / alternative substrate inhibitor activity with glutaredoxin (coupled GRX/GSH/GR system)” value in series [6] is reported as “substrate-like activity”. The “inhibition of TX/TXR catalyzed reduction of the insulin A-B chain disulfide bond” value in series [7] is “inhibits”. Further, the Km in series [7] (read-out: Km for inhibition of thioredoxin/thioredoxin reductase catalyzed reduction of the insulin A-B chain disulfide) is 3600 µM.

As for `NC(CSSCCS(=O)(=O)O)C(=O)O` (centres unmarked) [BNP7766], in series [1], the “substrate (alternative substrate inhibitor) for thioredoxin / the coupled thioredoxin/thioredoxin reductase/NADPH system” value was “substrates” and the “NADPH Oxidation, Thioredoxin Reductase + Thioredoxin” value turned out to be 14.4 ± 0.2 nmol/min/mL.

Source of the values: US9023805B2, “Increasing cancer patient survival time by administration of dithio-containing compounds” (BioNumerik Pharmaceuticals, Inc., priority 2010, dated 2015).
